Consider 15 molecules from US20230258569A1, “REAGENT FOR MEASURING SKIN SENSITIZATION, COMPOUND, AND METHOD FOR MEASURING SKIN SENSITIZATION” (FUJIFILM Corporation, priority 2020, published 2023).

Counter-ions that a name gives are not always drawn.

For series [1] the following is noted: prediction results published in the literature; cited from earlier work.
The nature of series [2]: DPRA (direct peptide reactivity assay). The note with it: in words. The text has this:
For example, [Gerberick, G. F., Vassallo, J. D., Bailey, R. E., Chaney, J. G., Morrall, S. W., and Lepoittevin, J. P. (2004). Development of a peptide reactivity assay for screening contact allergens. Toxicological Sciences, 81 (2), pp. 332-343] and [Gerberick, G. F., Vassallo, J. D., Foertsch, L. M., Price, B. B., Chaney, J. G., and Lepoittevin, J. P. (2007). Quantification of chemical peptide reactivity for screening contact allergens: a classification tree model approach. Toxicological Sciences, 97 (2), pp. 417-427] describe a method using two types of peptides (a cysteine peptide and a lysine peptide) as nucleophilic reagents. In addition, JP2011-59102A and JP2014-37995A describe a reagent for measuring skin sensitization and a method for measuring skin sensitization, using a cysteine derivative into which an aryl ring has been introduced and a lysine derivative into which an aryl ring has been introduced as nucleophilic reagents (also referred to as ADRA).
Natsch A. and Gfeller H. (2008). […] Quantification of chemical peptide reactivity for screening contact allergens: a classification tree model approach. […]
One type of nucleophilic reagent (Compound 1) was evaluated. In addition, the following compounds were also evaluated in the same manner as controls for comparison of the reactivity to the fifteen types of evaluation substances. • Cys peptide • Lys peptide

The nature of series [3]: Reactivity (% depletion) of nucleophilic reagent Compound 1 with test substance, HPLC; skin sensitization prediction. The settings on record: for reactivity of Compound 1 in comparison with NAC and NAL in ADRA / reactivity of Compound 1 in comparison with NAC-amide / reactivity of Compound 1 in comparison with the cysteine peptide and the lysine peptide in DPRA / reactivity of Compound 1 in comparison with GSH-NBD: FIG. 3, FIG. 4; for reactivity of Compound 1 with the substance: in words.

The conditions of series [4]: in vivo; cited from earlier work.
The conditions of series [5]: prediction results published in the literature; cited from earlier work. This is another data set of the same source.
Series [6] is described as follows: Stability of nucleophilic reagent (residual ratio, HPLC-UV). The class given is physicochemical. Here is the method:
Immediately after preparation of the reaction solution (0 hours) and after incubation of the reaction solution at 25° C. for 24 hours (24 hours), the reaction solution is measured by HPLC-UV. At this time, since the nucleophilic reagent and the oxidized form and modified form of the nucleophilic reagent can be confirmed on HPLC, the residual ratio of the nucleophilic reagent is calculated based on the following equation.
Residual ratio (%) of nucleophilic reagent=area value of nucleophilic reagent/(area value of nucleophilic reagent+area value of oxidized form of nucleophilic reagent+area value of modified form of nucleophilic reagent)×100

On to `CCCCBr` [1-Bromobutane], for which the ADRA prediction entry in series [1] is “Negative”. Also, the “reactivity with the cysteine peptide in DPRA” value in series [2] is given as “reactive”. Besides, in series [3], the “reactivity of Compound 1 in comparison with NAC and NAL in ADRA” value (from here on “reactivity … in ADRA”) is on record as “same level of reactivity”; the “reactivity of Compound 1 in comparison with NAC-amide” value (shortened to “reactivity … with NAC-amide”) is “same level of reactivity”; the “reactivity of Compound 1 with the substance” value is listed as “no reactivity”.
For the molecule `CCC=C1OC(=O)c2ccccc21` [3-Propylidene phthalide], the “Category of LLNA sensitization” value in series [4] is recorded as “Moderate”. In addition, in series [3], the “reactivity … in ADRA” value is recorded as “same level of reactivity”; the “reactivity … with NAC-amide” value was “same level of reactivity”; the “reactivity of Compound 1 in comparison with the cysteine peptide and the lysine peptide in DPRA” value (shortened to “reactivity of Compound 1 in comparison … in DPRA”) is on record as “lower reactivity”. Further, the DPRA prediction entry in series [5] is “Positive”.
As to `COc1ccc(C(C)=O)cc1` [4′-Methoxyacetophenone], the “Category of LLNA sensitization” value in series [4] is listed as “None”. For the same molecule, the ADRA prediction result in series [1] is given as “Negative”. Further, in series [3], the “reactivity … in ADRA” value is “same level of reactivity”; the “reactivity … with NAC-amide” value is listed as “same level of reactivity”; the “reactivity of Compound 1 in comparison … in DPRA” value is “same level of reactivity”. In series [5], the DPRA prediction result was “Negative”.
On to `CCCCCCI` [Compound 1-Iodohexane, 1-Iodohexane], for which the “Category of LLNA sensitization” value in series [4] is given as “None”. Moreover, the ADRA prediction entry in series [1] is reported as “Negative”. Also, the “reactivity with the cysteine peptide in DPRA” value in series [2] is listed as “reactive”. Besides, in series [3], the “reactivity … in ADRA” value was “same level of reactivity”; the “reactivity … with NAC-amide” value is listed as “same level of reactivity”; the “reactivity of Compound 1 with the substance” value is “no reactivity”.
On to `NNC(=O)[C@H](CS)NC(=O)Cc1cccc2ccccc12` [Compound 1], for which the “residual ratio of nucleophilic reagent” value was not below 85% in series [6] (after 24 hours, 25° C.) and not below 90% in series [6] (immediately after solution preparation (0 hours)).
With `CC(C=O)Cc1ccc(C(C)C)cc1` (centres unmarked) [Cyclamen aldehyde], the “Category of LLNA sensitization” value in series [4] is “Weak”. In addition, in series [3], the “reactivity of Compound 1 in comparison with GSH-NBD” value (“reactivity … with GSH-NBD” below) is recorded as “higher reactivity”; the “reactivity … in ADRA” value is “higher reactivity”; the “reactivity … with NAC-amide” value is reported as “higher reactivity”; the “reactivity of Compound 1 in comparison … in DPRA” value is reported as “higher reactivity”. In addition, the DPRA prediction entry in series [5] was “Positive”.
With `CCOS(=O)(=O)OCC` [Diethyl sulfate], the DPRA prediction entry in series [5] is “Positive”.
In the case of `O=c1c(-c2ccccc2)c1-c1ccccc1` [Diphenylcyclopropenone], the ADRA prediction result in series [1] is given as “Positive”. Further, in series [3], the “reactivity … in ADRA” value was “higher reactivity”; the “reactivity … with NAC-amide” value is on record as “same level of reactivity”; the “reactivity of Compound 1 in comparison … in DPRA” value is reported as “same level of reactivity”. The DPRA prediction result in series [5] was “Positive”.
For `CCOC(=O)CC(=O)c1ccccc1` [Ethyl benzoylacetate], in series [4], the “Category of LLNA sensitization” value is “None”. For the same molecule, the ADRA prediction entry in series [1] is “Negative”. In series [3], the “reactivity … in ADRA” value is reported as “same level of reactivity”; the “reactivity … with NAC-amide” value is recorded as “same level of reactivity”; the “reactivity of Compound 1 in comparison … in DPRA” value is on record as “same level of reactivity”. Moreover, the DPRA prediction entry in series [5] is on record as “Negative”.
For `COC(=O)C(C)=O` [Methyl pyruvate], the “Category of LLNA sensitization” value in series [4] is “Moderate”. Moreover, in series [3], the “reactivity … with GSH-NBD” value was “higher reactivity”; the “reactivity … in ADRA” value is “higher reactivity”; the “reactivity … with NAC-amide” value is listed as “higher reactivity”; the “reactivity of Compound 1 in comparison … in DPRA” value is recorded as “higher reactivity”.
For `CCCCCCCCC(=O)Cl` [Nonanoyl chloride], the “Category of LLNA sensitization” value in series [4] was “Moderate”. For the same molecule, the ADRA prediction entry in series [1] is given as “Positive”. Further, in series [3], the “reactivity … with GSH-NBD” value was “GSH-NBD showed higher reactivity”; the “reactivity … in ADRA” value is “higher reactivity”; the “reactivity … with NAC-amide” value was “same level of reactivity”; the “reactivity of Compound 1 in comparison … in DPRA” value is on record as “higher reactivity”.
For `O=C(Oc1ccccc1)c1ccccc1` [Phenyl benzoate], the “Category of LLNA sensitization” value in series [4] is recorded as “Weak”. Also, in series [3], the “reactivity … in ADRA” value was “higher reactivity”; the “reactivity … with NAC-amide” value is recorded as “same level of reactivity”; the “reactivity of Compound 1 in comparison … in DPRA” value was “lower reactivity”. In addition, in series [5], the DPRA prediction entry was “Positive”.
Consider `O=C(O)c1ccc2c(c1)C(=O)OC2=O` [Trimellitic anhydride], for which, in series [4], the “Category of LLNA sensitization” value is given as “Strong”. Moreover, the ADRA prediction result in series [1] is recorded as “Positive”. For the same molecule, in series [3], the “reactivity … with GSH-NBD” value was “GSH-NBD showed higher reactivity”; the “reactivity … in ADRA” value is listed as “NAL showed higher reactivity than Compound 1”; the “reactivity … with NAC-amide” value is “higher reactivity”; the “reactivity of Compound 1 in comparison … in DPRA” value is “same level of reactivity”. Also, the “depletion of Compound 1” value in series [3] (pH 7.4) is 41.0%. Further, the “depletion of Compound 1” value in series [3] (pH 8.0) is listed as 37.2%. In addition, the DPRA prediction entry in series [5] is given as “Positive”.
As for `O=c1cccccc1O` [Tropolone], the “Category of LLNA sensitization” value in series [4] is “Moderate”. Moreover, in series [3], the “reactivity … in ADRA” value is “higher reactivity”; the “reactivity … with NAC-amide” value was “same level of reactivity”; the “reactivity of Compound 1 in comparison … in DPRA” value is reported as “lower reactivity”. Also, the DPRA prediction entry in series [5] is listed as “Positive”.
Consider `CCCCCC(C=O)=Cc1ccccc1` [α-Pentyl cinnamaldehyde], for which, in series [4], the “Category of LLNA sensitization” value is “Weak”. In addition, in series [3], the “reactivity … with GSH-NBD” value is on record as “higher reactivity”; the “reactivity … in ADRA” value is “higher reactivity”; the “reactivity … with NAC-amide” value is “higher reactivity”; the “reactivity of Compound 1 in comparison … in DPRA” value is “higher reactivity”.
